Source: BindingDB's records for doi:10.1021/jm00352a017 (1983)

Legend:
[1] = Inhibition of rat kidney pyruvate kinase (PK-K) at 6.7 mM
[2] = Michaelis-Menten constant for inhibition of rat kidney pyruvate kinase (PK-K)
[3] = Inhibition of rat kidney pyruvate kinase (PK-K)
[4] = Inhibition of rat liver pyruvate kinase (PK-L) at 3.6 mM

| Ki [3] | Compound | also measured |
| --- | --- | --- |
|  | C[C@@H](OP(=O)(O)OP(=O)(O)O)[C@H]1OC(n2cnc3c(N)ncnc32)[C@H](O)[C@@H]1O (stereo partly specified) | Ki [1]: 10.9 mM; Ki [2]: 8 mM |
| 2.9 mM | CCNc1nc2c(N)ncnc2n1C1O[C@H](COP(=O)(O)OP(=O)(O)O)[C@@H](O)[C@H]1O (stereo partly specified) |  |
| 5 mM | CSc1nc2c(N)ncnc2n1C1O[C@H](COP(=O)(O)OP(=O)(O)O)[C@@H](O)[C@H]1O (stereo partly specified) |  |
| 3.9 mM | CCSc1nc2c(N)ncnc2n1C1O[C@H](COP(=O)(O)OP(=O)(O)O)[C@@H](O)[C@H]1O (stereo partly specified) |  |
|  | CO[C@H]1[C@@H](O)[C@H](n2cnc3c(N)ncnc32)O[C@@H]1COP(=O)(O)OP(=O)(O)O [[5-(6-amino-9H-purin-9-yl)-4-hydroxy-3-methoxytetrahydrofuran-2-yl]methyl trihydrogen diphosphate] | Ki [4]: 7 mM |
